Values quoted from earlier work, collected in US20170232026A1, “PHARMACEUTICAL COMPOSITION IN […] FOR VETERINARY USE AS A PROMOTER SYSTEM AND BIO-ADHESIVE IN ANT[…], AND METHOD FOR THE PRODUCTION THEREOF” (UNIVERSIDAD NACIONAL AUTONOMA DE MEXICO, priority 2014, published 2017).

CC[C@H](C)[C@H]1O[C@]2(CC[C@@H]1C)C[C@@H]1C[C@@H](C/C=C(\C)[C@@H](O[C@H]3C[C@H](OC)[C@@H](O[C@H]4C[C@H](OC)[C@@H](O)[C@H](C)O4)[C@H](C)O3)[C@@H](C)/C=C/C=C3\CO[C@@H]4[C@H](O)C(C)=C[C@@H](C(=O)O1)[C@]34O)O2 [Ivermectin, 22, 23-dihydroavermectin B1a]
solubility in ethanol at 95% (ethanol at 95%): soluble
solubility in methanol (methanol): soluble
solubility in water (water): insoluble
